The structures appear in SMILES notation. Read-outs that look alike come from different tables or passages of the source.

Data set [1] deals with stationary-phase promastigotes of L. amazonensis. Description: Antileishmanial activity: inhibition of promastigote viability (MTT). It counts as cell-based, Leishmania amazonensis. How it is done:
Cell viability was assessed by measuring the cleavage of 2 mg/mL of MTT [3-(4.5-dimethylthiazol-2-yl)-2.5-diphenyl tetrazolium bromide] (Sigma). Absorbances were measured by using a multiwell scanning spectrophotometer (LABTRADE, model 660) at a wavelength of 570 nm. Amphotericin B (1 μM) was used as a positive control. The concentration of the products needed to inhibit 50% of the Leishmania viability (IC50) was determined by applying the sigmoidal regression of the concentration-response curves, using different concentrations of the compounds.

Data set [2] has as its system murine macrophages. Kind of data set: Cytotoxicity assay on macrophages (MTT). Conditions: for SI, Selectivity Index (ratio between CC50 and IC50): murine macrophages vs L. amazonensis promastigotes.
Method: (§1) Cell viability was assessed by the MTT assay, and amphotericin B was used as a control. The selectivity index (SI) of the products was calculated by determining the ratio between IC50 and CC50. The hemolytic activity was investigated by incubating the products, in the same concentrations used for cytotoxicity evaluation, with a 5% red blood cell (human O^+) suspension for 1 h at 37°C. Briefly, the erythrocyte suspension was centrifuged (1000 ×g for 10 min), and cell lysis was determined spectrophotometrically (570 nm), as described [24]. The absence of (blank) or 100% presence of hemolysis (positive control) was determined by replacing the products for an equal volume of PBS or distilled water, respectively. The results were determined by the percentage of hemolysis when compared with the negative and positive controls. Data shown are representative of four independent experiments, performed in triplicate, which presented similar results.
For data set [3], the system named is murine macrophages.
Method: as §1
For data set [4], the system named is Leishmania amazonensis invasion of murine macrophages. Kind of data set: Inhibition of infection in phagocytic cells (pre-treated promastigotes). The format is cell-based. The following applies: for reductions in infectivity of parasites after treatment: parasites preincubated 4 h at 24°C, versus about 87% infected macrophages with untreated parasites, concentration not given; for number of amastigotes per cell / Percentage of infected macrophages after treatment: 4 h at 24°C; for number of amastigotes per cell: untreated 8.4; for Percentage of infected macrophages after treatment: untreated 87.0. The procedure: The inhibitory effect of quercetin 3-O-methyl ether and strychnobiflavone on the Leishmania invasion of macrophages was evaluated using promastigotes of L. amazonensis. Parasites (1 × 10^6 cells) were preincubated with different concentrations of quercetin 3-O-methyl ether (0, 70, 140, or 280 μM) or strychnobiflavone (0, 40, 80, or 160 μM) for 4 h at 24°C. […] After incubation, parasites were washed three times with RPMI 1640 medium, quantified, and incubated for 24 h with murine macrophages, using a ratio of 10 parasites per 1 macrophage. After, cells were washed, set, and stained to determine the percentage of infected macrophages by counting 200 cells in triplicate.

The test system of data set [5] is L. amazonensis in infected murine macrophages. Kind of data set: Treatment of infected macrophages. The following applies: for number of amastigotes per cell: untreated 8.4; for Percentage of infected macrophages after treatment: untreated 87.0. It counts as cell-based, Leishmania amazonensis. The procedure: Murine macrophages (5 × 10^5 cells) were plated on round glass coverslips inside the wells of a 24-well culture plate (Nunc) in an RPMI 1640 medium supplemented with 20% FBS, 2 mM L-glutamine, 200 U/mL penicillin, and 100 μg/mL streptomycin, at pH 7.4. After 24 h of incubation at 37°C in 5% CO2, stationary-phase promastigotes of L. amazonensis were added to the wells (5 × 10^6 cells), and the cultures were incubated for 24 h at 37°C in 5% CO2. A previous titration curve was performed to determine the minimum time incubation of parasites with the macrophages, in order to obtain the maximum of infection into the host cells (data not shown). Next, free parasites were removed by extensive washing with an RPMI 1640 medium, and infected macrophages were quantified and treated for 48 h with quercetin 3-O-methyl ether (0, 70, 140, or 280 μM) or strychnobiflavone (0, 40, 80 or 160 μM) for 48 h at […] in 5% CO2. Cells were washed in RPMI 1640 and incubated with 4% paraformaldehyde for 15 min, at which time they were treated with 70% ethanol in an ice bath for 4 h and again washed three times with sterile PBS. Amphotericin B was used as a control. The percentage of the inhibition of Leishmania intra-macrophage viability was determined by counting 200 cells in triplicate.

In data set [6] the test system is O+ human red blood cells. Description: Hemolytic activity. It counts as cell-based.
Method: as §1
The nature of data set [7]: Cytotoxicity assay on macrophages (MTT). Conditions: BALB/c, mouse, murine macrophages.
Method: as §1
[8] abbreviates: Leishmania amazonensis, 48 h, stationary-phase promastigotes, 48 h at 24°C, MTT, read-out: IC50 (inhibitory concentration of 50% of promastigotes of L. amazonensis).
Setting [9] is: promastigotes pre-treated with 70 μM.
Setting [10] is: promastigotes pre-treated with 140 μM.
Setting [11] is: promastigotes pre-treated with 280 μM.
The mark [12] stands for this setting: infected macrophages treated with 70 μM for 48 h.
Where [13] appears, read: infected macrophages treated with 140 μM for 48 h.
Setting [14] is: infected macrophages treated with 280 μM for 48 h.
[15] abbreviates: promastigotes pre-treated with 40 μM.
Where [16] appears, read: promastigotes pre-treated with 80 μM.
Where [17] appears, read: promastigotes pre-treated with 160 μM.
Where [18] appears, read: infected macrophages treated with 40 μM for 48 h.
[19] abbreviates: infected macrophages treated with 80 μM for 48 h.
Where [20] appears, read: infected macrophages treated with 160 μM for 48 h.

Turning to `C[C@@H]1[C@H](O)[C@@H](C)/C=C/C=C/C=C/C=C/C=C/C=C/C=C/[C@H](O[C@@H]2O[C@H](C)[C@@H](O)[C@H](N)[C@@H]2O)C[C@@H]2O[C@](O)(C[C@@H](O)C[C@@H](O)[C@H](O)CC[C@@H](O)C[C@@H](O)CC(=O)O[C@H]1C)C[C@H](O)[C@H]2C(=O)O` [AmpB, amphotericin B, reference compound], in data set [1] (setting [8]), the IC50 was 0.1 ± 0.13 µM. Further, the “SI, Selectivity Index (ratio between CC50 and IC50)” value in data set [2] is listed as 9.9. The “toxicity in murine macrophages (in words)” value (from here on “toxicity”) in data set [3] is on record as “highly cytotoxic”.

As for `COc1c(-c2ccc(O)c(O)c2)oc2cc(O)cc(O)c2c1=O` [Quercetin 3-O-methyl ether, quercetin 3-O-methyl ether], the IC50 was 8.08 µM in data set [1] (setting [8]) and 8.1 ± 1.5 µM in data set [1] (stationary-phase promastigotes, 48 h at 24°C, MTT, listed as Quercetin 3-methyl ether, read-out: IC50 (inhibitory concentration of 50% of promastigotes of L. amazonensis)). In addition, the “SI, Selectivity Index (ratio between CC50 and IC50)” value in data set [2] was 24.62; in data set [2] (listed as Quercetin 3-methyl ether), 24.6. For the same molecule, the “reductions in infectivity of parasites after treatment” value in data set [4] was roughly 47%. Besides, the “number of amastigotes per cell” value amounted to 4.5 in data set [4] (setting [9]); 3.9 in data set [4] (setting [10]); 2.4 in data set [4] (setting [11]); 5.6 in data set [5] (setting [12]); 4.4 in data set [5] (setting [13]); 1.7 in data set [5] (setting [14]). Further, the “Percentage of infected macrophages after treatment” value in data set [4] (setting [9]) was 67.8%; in data set [4] (setting [10]) it was 61.9%; in data set [4] (setting [11]) it was 46.1%; in data set [5] (setting [12]) it was 72.4%; in data set [5] (setting [13]), 68.0%; in data set [5] (setting [14]), 46.3%. Moreover, the “toxicity” value in data set [3] is listed as “no significant toxicity”. Further, the “hemolytic activity / damage to human erythrocytes (in words)” value in data set [6] is recorded as “no significant damage”. Besides, the “RBC50 (50% of human red blood cell lysis)” value in data set [6] (human, 1 h) was found to be 155.0 ± 33.2 µM.

The CC50 is the concentration at which the toxic effect on the cells reaches its halfway point. Read a low CC50 as harm at low concentration. For `COc1c(-c2ccc(O)c(O)c2-c2c(O)cc(O)c3c(=O)c(OC)c(-c4ccc(O)c(O)c4)oc23)oc2cc(O)cc(O)c2c1=O` [Strychnobiflavone, strychnobiflavone], the IC50 is 3.16 µM in data set [1] (Leishmania amazonensis, 48 h, read-out: IC50 (inhibitory concentration of 50% of promastigotes of L. amazonensis), stationary-phase promastigotes, 48 h at 24°C, MTT) and 3.2 ± 0.2 µM in data set [1] (stationary-phase promastigotes, 48 h at 24°C, MTT, read-out: IC50 (inhibitory concentration of 50% of promastigotes of L. amazonensis)). Also, the CC50 at 48 h in data set [7] came to 125 ± 4.5 µM. Besides, the “toxicity” value in data set [2] (in vitro, after incubation with the products) is given as “no significant toxicity”. The entries for the “SI, Selectivity Index (ratio between CC50 and IC50)” value in data set [2] and in data set [2] (listed as strychnobiflavone) were 39.6 and 39.55, respectively. Further, the “reductions in infectivity of parasites after treatment” value in data set [4] is on record as roughly 72.6%. The “number of amastigotes per cell” value is 3.0 in data set [4] (setting [15]); 2.2 in data set [4] (setting [16]); 1.2 in data set [4] (setting [17]); 1.5 in data set [5] (setting [18]); 1.3 in data set [5] (setting [19]); 0.4 in data set [5] (setting [20]). Further, the “Percentage of infected macrophages after treatment” value in data set [4] (setting [15]) is on record as 53.0%; in data set [4] (setting [16]) it was 47.8%; in data set [4] (setting [17]) it was 23.8%; in data set [5] (setting [18]), 37.9%; in data set [5] (setting [19]) it was 26.3%; in data set [5] (setting [20]), 9.6%. The “RBC50 (50% of human red blood cell lysis)” value in data set [6] (5% human O+ red blood cell suspension, 1 h at 37°C) came out at 209.6 ± 2.5 µM. In data set [6] (O+ human red blood cells), the “hemolytic activity / damage to human erythrocytes (in words)” value is given as “no significant damage”.
